Among the data in ChEMBL document CHEMBL5465560, “Selectivity Literature for EUbOPEN Chemogenomic Library” (2024) are dTM and % of control values, retold here.

Assay [1] has as its target AP2-associated protein kinase 1 (Homo sapiens, UniProt Q2M2I8). The experiment in a line: Selectivity interaction (Kinase panel (DSF assay)) EUB0001558a AAK1. (Differential scanning fluorimetry follows unfolding on heating by fluorescence.)
The target in assay [2] is Serine/threonine-protein kinase Nek7 (Homo sapiens) (UniProt Q8TDX7). The experiment in a line: Selectivity interaction (Kinase panel (DSF assay)) EUB0001558a NEK7.
Sequence of Serine/threonine-protein kinase Nek7 (Homo sapiens) (Q8TDX7 whole entry, looked up): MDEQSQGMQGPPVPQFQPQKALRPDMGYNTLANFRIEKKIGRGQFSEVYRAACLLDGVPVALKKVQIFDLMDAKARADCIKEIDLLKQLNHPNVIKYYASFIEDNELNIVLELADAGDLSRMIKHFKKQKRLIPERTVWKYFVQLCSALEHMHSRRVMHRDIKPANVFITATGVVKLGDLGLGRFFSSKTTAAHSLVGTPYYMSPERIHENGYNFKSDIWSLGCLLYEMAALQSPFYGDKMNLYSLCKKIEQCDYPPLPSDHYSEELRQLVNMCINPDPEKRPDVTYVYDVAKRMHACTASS
Assay [3] addresses T1, Serine/threonine-protein kinase LATS2 (Homo sapiens) (UniProt Q9NRM7).
T1 sequence (whole entry): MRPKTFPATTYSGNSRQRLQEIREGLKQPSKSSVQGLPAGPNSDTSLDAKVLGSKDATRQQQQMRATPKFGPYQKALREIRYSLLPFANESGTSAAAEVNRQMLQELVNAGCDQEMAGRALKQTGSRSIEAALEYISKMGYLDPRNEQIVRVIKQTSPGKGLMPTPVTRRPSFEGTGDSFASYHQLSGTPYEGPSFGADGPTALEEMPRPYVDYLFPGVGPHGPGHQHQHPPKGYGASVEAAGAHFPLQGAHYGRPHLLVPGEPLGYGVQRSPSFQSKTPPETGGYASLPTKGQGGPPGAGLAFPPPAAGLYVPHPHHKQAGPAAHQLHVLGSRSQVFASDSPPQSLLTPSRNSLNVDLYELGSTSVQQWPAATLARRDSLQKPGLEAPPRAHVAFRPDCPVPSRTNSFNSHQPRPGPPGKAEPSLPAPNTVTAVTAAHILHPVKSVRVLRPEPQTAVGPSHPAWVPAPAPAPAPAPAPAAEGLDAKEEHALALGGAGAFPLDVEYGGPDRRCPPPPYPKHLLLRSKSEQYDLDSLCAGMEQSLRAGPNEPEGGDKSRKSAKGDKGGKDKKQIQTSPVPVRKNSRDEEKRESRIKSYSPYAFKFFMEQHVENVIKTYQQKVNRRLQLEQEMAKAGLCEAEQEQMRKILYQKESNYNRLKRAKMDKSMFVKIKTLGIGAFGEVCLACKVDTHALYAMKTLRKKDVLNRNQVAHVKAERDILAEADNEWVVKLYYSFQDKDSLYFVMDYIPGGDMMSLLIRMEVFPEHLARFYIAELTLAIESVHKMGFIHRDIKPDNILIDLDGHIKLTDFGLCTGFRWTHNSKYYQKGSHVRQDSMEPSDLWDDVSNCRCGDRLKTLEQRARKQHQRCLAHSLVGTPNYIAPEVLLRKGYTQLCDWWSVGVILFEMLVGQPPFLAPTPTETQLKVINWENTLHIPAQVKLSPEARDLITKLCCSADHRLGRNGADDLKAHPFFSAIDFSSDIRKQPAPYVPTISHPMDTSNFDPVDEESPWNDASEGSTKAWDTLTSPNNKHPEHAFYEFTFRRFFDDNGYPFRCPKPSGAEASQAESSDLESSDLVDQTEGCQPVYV
Nature of the assay: Selectivity interaction (KinomeScan (DiscoverX)) EUB0001619a LATS2. Particulars: at 1 µM.

In assay [4] the target is T2, Serine/threonine-protein kinase D2 (Homo sapiens) (UniProt Q9BZL6).
T2 sequence (whole entry): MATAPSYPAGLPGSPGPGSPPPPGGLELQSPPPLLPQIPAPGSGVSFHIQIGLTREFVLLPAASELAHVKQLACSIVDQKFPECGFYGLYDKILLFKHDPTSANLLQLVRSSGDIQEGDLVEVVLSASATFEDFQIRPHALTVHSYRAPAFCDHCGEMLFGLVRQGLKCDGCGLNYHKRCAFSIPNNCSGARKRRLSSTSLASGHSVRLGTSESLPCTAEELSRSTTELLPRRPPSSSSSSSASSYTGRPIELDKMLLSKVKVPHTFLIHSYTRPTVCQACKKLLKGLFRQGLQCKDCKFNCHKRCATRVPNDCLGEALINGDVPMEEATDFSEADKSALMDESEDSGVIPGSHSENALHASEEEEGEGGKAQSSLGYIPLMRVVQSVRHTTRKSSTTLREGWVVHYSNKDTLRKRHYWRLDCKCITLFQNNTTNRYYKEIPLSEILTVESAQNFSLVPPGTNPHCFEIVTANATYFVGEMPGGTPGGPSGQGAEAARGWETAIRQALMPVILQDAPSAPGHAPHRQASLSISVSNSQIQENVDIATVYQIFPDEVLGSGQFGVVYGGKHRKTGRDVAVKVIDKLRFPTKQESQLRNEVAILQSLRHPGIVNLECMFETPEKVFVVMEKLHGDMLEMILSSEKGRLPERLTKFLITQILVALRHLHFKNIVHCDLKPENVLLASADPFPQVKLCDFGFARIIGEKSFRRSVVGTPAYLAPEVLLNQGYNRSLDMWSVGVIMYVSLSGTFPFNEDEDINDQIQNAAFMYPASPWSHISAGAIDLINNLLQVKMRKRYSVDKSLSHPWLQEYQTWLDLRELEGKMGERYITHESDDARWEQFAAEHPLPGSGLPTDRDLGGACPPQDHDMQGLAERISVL
The experiment in a line: Selectivity interaction (Millipore kinase profiler) EUB0000124b PRKD2. To be noted: at 10 µM.

In assay [5] the target is RAC-beta serine/threonine-protein kinase (Homo sapiens) (UniProt P31751). Nature of the assay: Selectivity interaction (Millipore kinase profiler) EUB0000124b AKT2. To be noted: at 10 µM.
Sequence of RAC-beta serine/threonine-protein kinase (Homo sapiens) (P31751 whole entry, canonical isoform): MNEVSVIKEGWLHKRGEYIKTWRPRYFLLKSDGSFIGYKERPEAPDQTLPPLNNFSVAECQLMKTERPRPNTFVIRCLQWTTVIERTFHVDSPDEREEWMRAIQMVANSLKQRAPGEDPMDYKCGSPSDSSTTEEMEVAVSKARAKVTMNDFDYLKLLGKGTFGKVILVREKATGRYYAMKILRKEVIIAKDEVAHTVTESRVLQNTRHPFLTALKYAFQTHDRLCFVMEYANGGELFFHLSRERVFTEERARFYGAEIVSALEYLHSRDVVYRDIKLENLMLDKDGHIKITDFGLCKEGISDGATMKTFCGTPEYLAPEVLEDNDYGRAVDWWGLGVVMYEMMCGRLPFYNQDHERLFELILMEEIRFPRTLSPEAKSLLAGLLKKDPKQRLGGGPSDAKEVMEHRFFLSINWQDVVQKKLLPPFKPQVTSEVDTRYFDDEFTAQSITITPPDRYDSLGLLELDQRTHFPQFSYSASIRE
For assay [6], the target named is Casein kinase I isoform gamma-1 (Homo sapiens) (UniProt Q9HCP0). Nature of the assay: Selectivity interaction (KinomeScan (DiscoverX)) EUB0000092b CSNK1G1. To be noted: at 10 µM.
Sequence of Casein kinase I isoform gamma-1 (Homo sapiens) (Q9HCP0 whole entry, looked up, canonical isoform): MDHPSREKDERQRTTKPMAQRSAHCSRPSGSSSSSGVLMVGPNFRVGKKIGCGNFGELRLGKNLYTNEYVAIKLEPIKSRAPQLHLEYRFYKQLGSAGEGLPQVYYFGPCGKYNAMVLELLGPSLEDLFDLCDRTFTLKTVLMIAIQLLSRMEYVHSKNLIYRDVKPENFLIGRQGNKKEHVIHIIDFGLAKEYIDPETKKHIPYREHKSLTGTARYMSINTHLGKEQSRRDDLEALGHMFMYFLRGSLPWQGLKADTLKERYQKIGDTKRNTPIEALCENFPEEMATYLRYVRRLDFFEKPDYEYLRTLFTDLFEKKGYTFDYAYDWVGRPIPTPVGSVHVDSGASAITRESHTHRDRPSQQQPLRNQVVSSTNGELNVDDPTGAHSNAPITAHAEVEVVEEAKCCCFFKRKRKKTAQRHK
Assay [7] addresses Macrophage-stimulating protein receptor (Homo sapiens, UniProt Q04912). The experiment in a line: Selectivity interaction (KinomeScan (DiscoverX)) EUB0000595a MST1R. Particulars: at 10 µM.

Sequence of AP2-associated protein kinase 1 (Q2M2I8 whole entry, looked up): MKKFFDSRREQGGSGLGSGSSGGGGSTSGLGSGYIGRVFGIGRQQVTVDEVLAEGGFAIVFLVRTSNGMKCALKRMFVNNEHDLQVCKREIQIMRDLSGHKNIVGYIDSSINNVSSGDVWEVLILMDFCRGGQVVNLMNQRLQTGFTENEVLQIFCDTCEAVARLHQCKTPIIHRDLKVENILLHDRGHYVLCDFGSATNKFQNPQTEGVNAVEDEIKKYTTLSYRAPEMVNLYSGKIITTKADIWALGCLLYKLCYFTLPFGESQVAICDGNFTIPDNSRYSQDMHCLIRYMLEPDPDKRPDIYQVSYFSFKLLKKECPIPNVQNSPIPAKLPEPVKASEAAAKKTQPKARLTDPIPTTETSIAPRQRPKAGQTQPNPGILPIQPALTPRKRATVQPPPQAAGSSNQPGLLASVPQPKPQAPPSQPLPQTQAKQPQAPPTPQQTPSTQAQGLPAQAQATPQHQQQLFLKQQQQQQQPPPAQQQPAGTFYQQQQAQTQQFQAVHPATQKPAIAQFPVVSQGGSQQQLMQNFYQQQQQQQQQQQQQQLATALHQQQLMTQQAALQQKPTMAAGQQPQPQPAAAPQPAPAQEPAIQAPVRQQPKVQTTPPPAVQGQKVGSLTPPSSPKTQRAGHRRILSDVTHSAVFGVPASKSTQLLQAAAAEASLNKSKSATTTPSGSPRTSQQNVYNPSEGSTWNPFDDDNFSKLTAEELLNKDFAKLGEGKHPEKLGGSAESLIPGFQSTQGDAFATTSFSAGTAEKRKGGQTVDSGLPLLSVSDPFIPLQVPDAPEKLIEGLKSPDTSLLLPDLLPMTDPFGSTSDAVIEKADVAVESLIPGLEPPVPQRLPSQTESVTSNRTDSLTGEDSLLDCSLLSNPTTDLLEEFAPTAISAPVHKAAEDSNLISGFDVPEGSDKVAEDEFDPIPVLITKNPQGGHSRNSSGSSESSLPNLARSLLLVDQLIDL
Sequence of Macrophage-stimulating protein receptor (Q04912 25-304 limits assumed): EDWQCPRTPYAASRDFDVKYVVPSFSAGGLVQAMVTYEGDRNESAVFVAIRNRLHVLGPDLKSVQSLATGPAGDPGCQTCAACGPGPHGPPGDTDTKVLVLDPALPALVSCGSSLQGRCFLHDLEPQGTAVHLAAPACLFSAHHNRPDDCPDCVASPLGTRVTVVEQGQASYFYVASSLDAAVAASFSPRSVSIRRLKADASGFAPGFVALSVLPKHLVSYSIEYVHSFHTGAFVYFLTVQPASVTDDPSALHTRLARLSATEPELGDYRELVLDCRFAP
Sequence of Macrophage-stimulating protein receptor (Q04912 310-1400 limits assumed): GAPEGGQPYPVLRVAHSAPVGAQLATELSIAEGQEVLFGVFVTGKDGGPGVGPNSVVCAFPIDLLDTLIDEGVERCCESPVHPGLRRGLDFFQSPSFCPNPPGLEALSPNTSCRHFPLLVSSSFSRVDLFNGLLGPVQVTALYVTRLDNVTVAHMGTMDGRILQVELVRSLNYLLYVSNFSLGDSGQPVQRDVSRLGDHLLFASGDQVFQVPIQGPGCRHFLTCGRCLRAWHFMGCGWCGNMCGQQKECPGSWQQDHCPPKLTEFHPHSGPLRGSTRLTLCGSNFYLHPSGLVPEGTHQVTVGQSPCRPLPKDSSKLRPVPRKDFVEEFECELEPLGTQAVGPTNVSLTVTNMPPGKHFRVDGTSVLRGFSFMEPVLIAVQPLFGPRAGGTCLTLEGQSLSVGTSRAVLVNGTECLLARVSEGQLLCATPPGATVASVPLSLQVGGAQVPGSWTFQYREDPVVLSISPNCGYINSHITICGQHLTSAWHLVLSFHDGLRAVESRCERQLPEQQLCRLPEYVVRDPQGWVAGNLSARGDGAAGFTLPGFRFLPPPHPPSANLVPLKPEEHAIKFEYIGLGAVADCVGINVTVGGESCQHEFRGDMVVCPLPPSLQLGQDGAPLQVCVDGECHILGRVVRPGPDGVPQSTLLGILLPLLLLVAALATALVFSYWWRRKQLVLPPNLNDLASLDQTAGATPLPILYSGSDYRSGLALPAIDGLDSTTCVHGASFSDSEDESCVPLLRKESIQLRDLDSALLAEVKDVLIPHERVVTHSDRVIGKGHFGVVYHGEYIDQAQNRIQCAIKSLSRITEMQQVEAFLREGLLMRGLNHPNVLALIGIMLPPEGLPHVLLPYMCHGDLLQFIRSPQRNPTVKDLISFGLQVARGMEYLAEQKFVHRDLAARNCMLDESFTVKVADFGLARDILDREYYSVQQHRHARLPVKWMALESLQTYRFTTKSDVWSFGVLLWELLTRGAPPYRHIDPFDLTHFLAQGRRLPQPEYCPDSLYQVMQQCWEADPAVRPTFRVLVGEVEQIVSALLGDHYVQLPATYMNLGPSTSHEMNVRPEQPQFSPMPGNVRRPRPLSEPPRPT

`CC(C)(O)[C@H](F)CN1Cc2cc(NC(=O)c3cnn4cccnc34)c(N3CCOCC3)cc2C1=O`: the dTM in assay [1] was 0.2 K; in assay [2], -0.2 K. On to `N#Cc1cccc(-c2c[nH]c3ncnc(N4CCOCC4)c23)c1`, for which the % of control in assay [3] came out at 87%. As to `CC(=O)Nc1cccc(-n2c(=O)n(C3CC3)c(=O)c3c(Nc4ccc(I)cc4F)n(C)c(=O)c(C)c32)c1`, the % of control in assay [4] came to 98%; in assay [5] it was 103%. With `CCC(=O)N1CCN(c2ccc(-n3c(=O)ccc4cnc5ccc(-c6cnc7ccccc7c6)cc5c43)cc2C(F)(F)F)CC1`, the % of control in assay [6] was 100%.

Compound `COCC(=O)NC/C=C/c1ccc2ncnc(Nc3ccc(Oc4ccc(C)nc4)c(C)c3)c2c1` [CP-724714] showed a % of control in assay [7] of 100%.
